Measured values published in patent US20250277012A1 (Protagonist Therapeutics, Inc., priority 2021, published 2025).
Positions of bridges follow the written chain, without caps; N, C: chain ends. Non-standard residues stand in square brackets, D forms with d. Residues, ends and D or L forms follow the SMILES beside them. Groups on a side chain read outwards from the residue. *: point of attachment. CH3O(CH2CH2O)11CH2CH2CO = COCCOCCOCCOCCOCCOCCOCCOCCOCCOCCOCCOCCC(=O)*; X1 = C[N+](C)(CCNC(=O)CCCCCCCCCCCCCCCCC(=O)O)CC(=O)*; X5 = CCCCCCCCCCCCCCCC(=O)NCC[N+](C)(C)CC(=O)*; C18 diacid = O=C(O)CCCCCCCCCCCCCCCCC(=O)*; Dip = N[C@H](C(=O)O)C(c1ccccc1)c1ccccc1; Pro(3R-OH) = O=C(O)[C@H]1NCC[C@H]1O; Palmitoyl = CCCCCCCCCCCCCCCC(=O)*; NMeT = CN[C@H](C(=O)O)[C@@H](C)O; NMeQ = CN[C@@H](CCC(N)=O)C(=O)O; β3hF = N[C@H](CC(=O)O)Cc1ccccc1; Aad = N[C@@H](CCCC(=O)O)C(=O)O; NMeK = CN[C@@H](CCCCN)C(=O)O; Isovaleryl = CC(C)CC(=O)*; Dap = NC[C@H](N)C(=O)O; AEEA = NCCOCCOCC(=O)O; Ahx = NCCCCCC(=O)O

Biological target: T1, ferroportin (Homo sapiens, UniProt Q9NP59)
T1 sequence (Q9NP59 1-571): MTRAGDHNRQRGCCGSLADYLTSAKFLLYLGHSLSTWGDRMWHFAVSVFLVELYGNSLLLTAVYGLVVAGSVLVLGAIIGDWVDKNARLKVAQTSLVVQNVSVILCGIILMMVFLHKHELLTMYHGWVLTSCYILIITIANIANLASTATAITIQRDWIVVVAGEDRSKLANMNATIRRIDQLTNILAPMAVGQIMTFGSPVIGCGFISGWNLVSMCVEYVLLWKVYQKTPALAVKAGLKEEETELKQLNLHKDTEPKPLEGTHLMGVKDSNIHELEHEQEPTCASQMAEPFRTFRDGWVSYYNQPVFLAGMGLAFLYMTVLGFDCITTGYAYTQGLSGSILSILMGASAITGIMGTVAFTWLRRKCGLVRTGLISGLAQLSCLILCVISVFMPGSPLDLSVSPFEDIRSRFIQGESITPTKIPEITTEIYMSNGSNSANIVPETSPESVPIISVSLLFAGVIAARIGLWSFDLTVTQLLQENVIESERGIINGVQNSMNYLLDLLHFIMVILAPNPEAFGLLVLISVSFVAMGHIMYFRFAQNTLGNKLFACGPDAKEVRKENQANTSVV
Experiment: T47D cell-based ferroportin internalization assay in presence of mouse serum albumin (MSA)
Parameters: a human breast carcinoma adherent cell line which endogenously expresses ferroportin; host or cells: T47D
Details: Table 6E
Method: The potency of the peptides in causing ferroportin internalization was evaluated in a T47D cell-based assay. […] In this internalization assay, the potency of the test peptides was evaluated in presence of serum albumin which is the main protein component in the blood. T47D cells were maintained in RPMI media (containing required amount of fetal bovine serum) and regularly sub-cultured. In preparation for the assay, the cells were seeded in 96-well plates at a density of 80-100 k cells per well in 100 ul volume and allowed to rest overnight. […] Sigma, A3139). The test peptide dilution series were allowed to incubate at room temperature for 30 min. Then the media was aspirated from the 96-well cell plate and test peptide dilution series were added. […] The AF647-conjugated detection peptide was previously verified to bind to ferroportin and cause its internalization. The cells were washed again after a 2 hr incubation in preparation for flow cytometry analysis. The Median Fluorescence Intensity (MFI) of the AF647-positive population was measured (after removing dead cells and non-singlets from the analysis). The MFI values were used to generate a dose-response curve and obtain IC50 potencies for the test peptides.

[1] = T47D internalization assay with MSA
[2] = T47D internalization assay in presence of mouse serum albumin (MSA)

| Structure (SMILES) | IC50 [1] [nM] | IC50 [2] [nM] |
| --- | --- | --- |
| CCCCCCCCCCCCCCCC(=O)NCCCCCC(=O)NCCCC[C@@H](C(=O)N[C@H](C(=O)N[C@H](CCCCN)C(N)=O)C(c1ccccc1)c1ccccc1)N(C)C(=O)[C@@H]1CSSC[C@H](NC(=O)[C@@H]2CCCN2C(=O)[C@@H](NC(=O)[C@H](Cc2cnc[nH]2)NC(=O)[C@@H]2CCCN2C(=O)[C@H](CCC(=O)O)NC(=O)CC(C)C)C(c2ccccc2)c2ccccc2)C(=O)N1 [compound 171] (Isovaleryl-EPH[Dip]PCC[NMeK]([Ahx-Palmitoyl])[Dip][dK]-NH2; disulfide 6-7) | 1 to 10 |  |
| CCCCCCCCCCCCCCCC(=O)NCC[N+](C)(C)CC(=O)NCCCC[C@@H](C(=O)N[C@H](C(N)=O)C(c1ccccc1)c1ccccc1)N(C)C(=O)[C@@H]1CSSC[C@H](NC(=O)[C@@H]2CCCN2C(=O)[C@@H](NC(=O)[C@H](Cc2cnc[nH]2)NC(=O)[C@@H]2[C@H](O)CCN2C(=O)[C@H](CCC(=O)O)NC(=O)CC(C)C)C(c2ccccc2)c2ccccc2)C(=O)N1 [compound 150] (Isovaleryl-E[Pro(3R-OH)]H[Dip]PCC[NMeK](X5)[Dip]-NH2; disulfide 6-7) | 1 to 10 |  |
| COC(=O)CC[C@H](NC(=O)CC(C)C)C(=O)N[C@H](C(=O)N[C@@H](Cc1c[nH]cn1)C(=O)N[C@H](C(=O)N1CCC[C@H]1C(=O)N[C@H]1CSSC[C@@H](C(=O)N(C)[C@@H](CCCCNC(=O)COCCOCCNC(=O)COCCOCCNC(=O)C[N+](C)(C)CCNC(=O)CCCCCCCCCCCCCCCCC(=O)O)C(=O)N[C@H](CC(=O)N[C@H](CCCCN)C(N)=O)Cc2ccccc2)NC1=O)C(c1ccccc1)c1ccccc1)[C@@H](C)O [compound 231] (Isovaleryl-E(OMe)TH[Dip]PCC[NMeK]([AEEA-AEEA-X1])[β3hF][dK]-NH2; disulfide 6-7) |  | 10 to 100 |
| CCCCCCCCCCCCCCCC(=O)NCC[N+](C)(C)CC(=O)NCCCC[C@@H](C(=O)N[C@H](C(=O)N[C@H](CCCCN)C(N)=O)C(c1ccccc1)c1ccccc1)N(C)C(=O)[C@@H]1CSSC[C@H](NC(=O)[C@@H]2CCCN2C(=O)[C@@H](NC(=O)[C@H](Cc2c[nH]cn2)NC(=O)[C@@H]2[C@H](O)CCN2C(=O)[C@H](CCC(=O)OC)NC(=O)CC(C)C)C(c2ccccc2)c2ccccc2)C(=O)N1 [compound 151] (Isovaleryl-E(OMe)[Pro(3R-OH)]H[Dip]PCC[NMeK](X5)[Dip][dK]-NH2; disulfide 6-7) | 1 to 10 |  |
| CC(C)CC(=O)NC(CCC(=O)O)C(=O)NC(C(=O)NC(Cc1cnc[nH]1)C(=O)NC(C(=O)N1CCCC1C(=O)NC1CSCc2ccc(cc2)CSCC(C(=O)N(C)C(CCCCNC(=O)COCCOCCNC(=O)COCCOCCNC(=O)C(CN)NC(=O)CCCCCCCCCCCCCCCCC(=O)O)C(=O)NC(CC(=O)NC(CCCCN)C(N)=O)Cc2ccccc2)NC1=O)C(c1ccccc1)c1ccccc1)C(C)O (centres unmarked) [compound 218] | 10 to 100 |  |
| COC(=O)CC[C@H](NC(=O)CC(C)C)C(=O)N[C@H](C(=O)N[C@@H](Cc1c[nH]cn1)C(=O)N[C@H](C(=O)N1CCC[C@H]1C(=O)N[C@H]1CSSC[C@@H](C(=O)N[C@H](CCCCNC(=O)CCCCCNC(=O)C[N+](C)(C)CCNC(=O)CCCCCCCCCCCCCCCCC(=O)O)C(=O)N[C@H](C(=O)N[C@H](CCCCN)C(N)=O)C(c2ccccc2)c2ccccc2)NC1=O)C(c1ccccc1)c1ccccc1)[C@@H](C)O [compound 208] (Isovaleryl-E(OMe)TH[Dip]PCC[dK]([Ahx-X1])[Dip][dK]-NH2; disulfide 6-7) | 10 to 100 |  |
| COCCOCCOCCOCCOCCOCCOCCOCCOCCOCCOCCOCCC(=O)NCCCC[C@@H](NC(=O)[C@@H](NC(=O)[C@H](CCCCNC(=O)COCCOCCNC(=O)COCCOCCNC(=O)C[N+](C)(C)CCNC(=O)CCCCCCCCCCCCCCCCC(=O)O)NC(=O)[C@@H]1CSSC[C@H](NC(=O)[C@@H]2CCCN2C(=O)[C@@H](NC(=O)[C@H](Cc2c[nH]cn2)NC(=O)[C@@H](NC(=O)[C@H](CCC(=O)O)NC(=O)CC(C)C)[C@@H](C)O)C(c2ccccc2)c2ccccc2)C(=O)N1)C(c1ccccc1)c1ccccc1)C(N)=O [compound 203] (Isovaleryl-ETH[Dip]PCCK([AEEA-AEEA-X1])[Dip][dK](CH3O(CH2CH2O)11CH2CH2CO)-NH2; disulfide 6-7) | 10 to 100 |  |
| CC(C)CC(=O)N[C@@H](CCCC(=O)O)C(=O)N[C@H](C(=O)N[C@@H](Cc1c[nH]cn1)C(=O)N[C@H](C(=O)N1CCC[C@H]1C(=O)N[C@H]1CSSC[C@@H](C(=O)N(C)[C@@H](CCCCNC(=O)COCCOCCNC(=O)COCCOCCNC(=O)[C@H](CN)NC(=O)CCCCCCCCCCCCCCCCC(=O)O)C(=O)N[C@H](CC(=O)N[C@H](CCCCN)C(N)=O)Cc2ccccc2)NC1=O)C(c1ccccc1)c1ccccc1)[C@@H](C)O [compound 244] (Isovaleryl-[Aad]TH[Dip]PCC[NMeK]([AEEA-AEEA-Dap-C18 diacid])[β3hF][dK]-NH2; disulfide 6-7) |  | 10 to 100 |
| CCCCCCCCCCCCCCCC(=O)NCC[N+](C)(C)CC(=O)NCCCC[C@@H](C(=O)N[C@H](C(=O)N(C)[C@@H](CCCCN)C(N)=O)C(c1ccccc1)c1ccccc1)N(C)C(=O)[C@@H]1CSSC[C@H](NC(=O)[C@@H]2CCCN2C(=O)[C@@H](NC(=O)[C@H](Cc2c[nH]cn2)NC(=O)[C@H]([C@@H](C)O)N(C)C(=O)[C@H](CCC(=O)OC)NC(=O)CC(C)C)C(c2ccccc2)c2ccccc2)C(=O)N1 [compound 149] (Isovaleryl-E(OMe)[NMeT]H[Dip]PCC[NMeK](X5)[Dip][NMeK]-NH2; disulfide 6-7) | 10 to 100 |  |
| COC(=O)CC[C@H](NC(=O)CC(C)C)C(=O)N[C@H](C(=O)N[C@@H](Cc1c[nH]cn1)C(=O)N[C@H](C(=O)N1CCC[C@H]1C(=O)N[C@H]1CSSC[C@@H](C(=O)N[C@@H](CCCCNC(=O)CCCCCNC(=O)C[N+](C)(C)CCNC(=O)CCCCCCCCCCCCCCCCC(=O)O)C(=O)N[C@H](CC(=O)N[C@H](CCCCN)C(N)=O)Cc2ccccc2)NC1=O)C(c1ccccc1)c1ccccc1)[C@@H](C)O [compound 315] (Isovaleryl-E(OMe)TH[Dip]PCCK([Ahx-X1])[β3hF][dK]-NH2; disulfide 6-7) |  | 10 to 100 |
| CC(C)CC(=O)N[C@@H](CCC(=O)O)C(=O)N[C@H](C(=O)N[C@@H](Cc1c[nH]cn1)C(=O)N[C@H](C(=O)N1CCC[C@H]1C(=O)N[C@H]1CSSC[C@@H](C(=O)N(C)[C@@H](CCCCNC(=O)COCCOCCNC(=O)COCCOCCNC(=O)[C@H](CN)NC(=O)CCCCCCCCCCCCCCCCC(=O)O)C(=O)N[C@H](CC(=O)N[C@H](CCCCN)C(=O)N(C)[C@@H](CCC(N)=O)C(N)=O)Cc2ccccc2)NC1=O)C(c1ccccc1)c1ccccc1)[C@@H](C)O [compound 251] (Isovaleryl-ETH[Dip]PCC[NMeK]([AEEA-AEEA-Dap-C18 diacid])[β3hF][dK][NMeQ]-NH2; disulfide 6-7) |  | 10 to 100 |
| CCCCCCCCCCCCCCCC(=O)NCCCCCC(=O)NCCCC[C@@H](C(=O)N[C@H](C(=O)N[C@H](CCCCN)C(N)=O)C(c1ccccc1)c1ccccc1)N(C)C(=O)[C@@H]1CSSC[C@H](NC(=O)[C@@H]2CCCN2C(=O)[C@@H](NC(=O)[C@H](Cc2cnc[nH]2)NC(=O)[C@H]([C@@H](C)O)N(C)C(=O)[C@H](CCC(=O)O)NC(=O)CC(C)C)C(c2ccccc2)c2ccccc2)C(=O)N1 [compound 173] (Isovaleryl-E[NMeT]H[Dip]PCC[NMeK]([Ahx-Palmitoyl])[Dip][dK]-NH2; disulfide 6-7) | 1 to 10 |  |
| CC(C)CC(=O)N[C@@H](CCC(=O)O)C(=O)N(C)[C@H](C(=O)N[C@@H](Cc1c[nH]cn1)C(=O)N[C@H](C(=O)N1CCC[C@H]1C(=O)N[C@H]1CSSC[C@@H](C(=O)N(C)[C@@H](CCCCNC(=O)CCCCCNC(=O)C[N+](C)(C)CCNC(=O)CCCCCCCCCCCCCCCCC(=O)O)C(=O)N[C@H](C(N)=O)C(c2ccccc2)c2ccccc2)NC1=O)C(c1ccccc1)c1ccccc1)[C@@H](C)O [compound 189] (Isovaleryl-E[NMeT]H[Dip]PCC[NMeK]([Ahx-X1])[Dip]-NH2; disulfide 6-7) | 100 to 500 |  |
| COC(=O)CC[C@H](NC(=O)CC(C)C)C(=O)N1CC[C@@H](O)[C@H]1C(=O)N[C@@H](Cc1c[nH]cn1)C(=O)N[C@H](C(=O)N1CCC[C@H]1C(=O)N[C@H]1CSSC[C@@H](C(=O)N(C)[C@@H](CCCCNC(=O)CCCCCNC(=O)C[N+](C)(C)CCNC(=O)CCCCCCCCCCCCCCCCC(=O)O)C(=O)N[C@H](C(=O)N[C@H](CCCCN)C(N)=O)C(c2ccccc2)c2ccccc2)NC1=O)C(c1ccccc1)c1ccccc1 [compound 155] (Isovaleryl-E(OMe)[Pro(3R-OH)]H[Dip]PCC[NMeK]([Ahx-X1])[Dip][dK]-NH2; disulfide 6-7) | 10 to 100 |  |
